Measured values as given in US20010056089A1, “Novel crystal of cephalosporin compound” (FUJISAWA PHARMACEUTICAL CO., LTD., priority 1995, published 2001).

Key:
[1] = Stability test (2): 9-day stability in an airtight container at 70° C.; format: physicochemical; details: potency by liquid chromatography
Procedure: Four lots of the isopropyl alcohol and water-containing crystal of compound (I) as obtained in Example 8 (2) were used.
The 9-day stability of each test sample in an airtight container at 70° C. was determined. The potency of each test sample was determined by liquid chromatography and the percentage residue was calculated.

[2] = Urinary excretion after oral administration; format: in vivo; details: male, SD, rat, urine; rats fasted overnight, 20 mg/kg oral, suspended in 0.5% methylcellulose; disk plate diffusion, Bacillus subtilis ATCC 6633; read-out: Recovery in 24-hrs urine (%)
Procedure: (C) Urinary Excretion Test Method Male SD rats (6-7 weeks old) from JCL were used. The test compound was suspended in 0.5% methylcellulose solution. The rats were fasted overnight before administration of 20 mg/kg. The urine was collected in the time slots of 0-6 and 6-24 hours after oral administration and the urinary recovery was determined by the disk plate diffusion method using Bacillus subtilis ATCC 6633 as the test organism and sodium citrate agar (0.8% sodium citrate, 0.5% polypeptone, 0.3% beef extract, and 1.0% agar) as the test medium.

[3] = Stability test of the crystal of Example 2 (conditions not stated); format: physicochemical
[4] = Stability test (1): one-month stability in an airtight container at 40° C.; format: physicochemical; details: potency by liquid chromatography
Procedure: The water-containing crystals and isopropyl alcohol and water-containing crystals of Compound (I) or a salt thereof obtained in Examples 5, 7 and 8(1) were tested.
The one-month stability of each test sample in an airtight container at 40° C. was evaluated.
The potency of each test sample was determined by liquid chromatography and the percentage residue of Compound (I) or a salt thereof was calculated.

SMILES | Residue (%) [1] | Residue (%) [4] | other results
Nc1nc(/C(=N/O)C(=O)NC2C(=O)N3C(C(=O)O)=C(SCc4cn[nH]c4)CSC23)cs1 (stereo not drawn) [Example 35414OP] | 98.7% | – | –
Nc1nc(/C(=N/O)C(=O)N[C@@H]2C(=O)N3C(C(=O)O)=C(SCc4cn[nH]c4)CS[C@H]23)cs1 [Compound (I), 7β-[2-(2-aminothiazol-4-yl)-2-(Z)-(hydroxyimino)acetamido]-3-[(pyrazol-4-yl)methylthio]-3-cephem-4-carboxylic acid] | – | – | dose excreted [2]: 50%
Nc1nc(/C(=N/O)C(=O)N[C@@H]2C(=O)N3C(C(=O)O)=C(SCc4cn[nH]c4)CS[C@H]23)cs1 [Example 2, 7β-[2-(2-aminothiazol-4-yl)-2-(Z)-(hydroxyimino)acetamido]-3-[(pyrazol-4-yl)methylthio]-3-cephem-4-carboxylic acid] | – | – | stability in the stability test [3]: stable
Nc1nc(/C(=N/O)C(=O)NC2C(=O)N3C(C(=O)O)=C(SCc4cn[nH]c4)CSC23)cs1 (stereo not drawn) [Example 37914XP] | 98.0% | – | –
Nc1nc(/C(=N/O)C(=O)N[C@@H]2C(=O)N3C(C(=O)O)=C(SCc4cn[nH]c4)CS[C@H]23)cs1 [Example 5, 7β-[2-(2-amino-thiazol-4-yl)-2-(Z)-(hydroxyimino)acetamido]-3-[(pyrazol-4-yl)methylthio]-3-cephem-4-carboxylic acid] | – | 98.2% | –
Nc1nc(/C(=N/O)C(=O)N[C@@H]2C(=O)N3C(C(=O)O)=C(SCc4cn[nH]c4)CS[C@H]23)cs1 [Example 7, 7β-[2-(2-aminothiazol-4-yl)-2-(Z)-(hydroxyimino)acetamido]-3-[(pyrazol-4-yl)methylthio]-3-cephem-4-carboxylic acid] | – | 99.2% | –
Nc1nc(/C(=N/O)C(=O)N[C@@H]2C(=O)N3C(C(=O)O)=C(SCc4cn[nH]c4)CS[C@H]23)cs1 [Example 8(1), 7β-[2-(2-aminothiazol-4-yl)-2-(Z)-(hydroxyimino)acetamido]-3-[(pyrazol-4-yl)methylthio]-3-cephem-4-carboxylic acid] | – | 98.5% | –
Nc1nc(/C(=N/O)C(=O)NC2C(=O)N3C(C(=O)O)=C(SCc4cn[nH]c4)CSC23)cs1 (stereo not drawn) [Example 35434OP] | 98.0% | – | –
Nc1nc(/C(=N/O)C(=O)NC2C(=O)N3C(C(=O)O)=C(SCc4cn[nH]c4)CSC23)cs1 (stereo not drawn) [Example 35534OP] | 99.2% | – | –
